# Measured values published in the supplement of paper PMC10307832.
# How the values were obtained:
# Experiment in all cases: relative viability (nuclei count vs DMSO), 5 days (fraction); higher = more cells survive
# [1] = compound: CCN1CCC(CC1)N2C=C(N=N2)CNC3=CC4=C(C(=CN=C4C(=C3)Cl)C#N)NC5=CC(=C(C=C5)F)Cl [KIN001-266]
# Procedure, shortened: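 Viability here means nuclei in treated wells divided by nuclei in vehicle wells, reported as the median across plates. Only plates with control CV below 25% and at least one doubling passed. Lung cancer cell lines in 1536-well plates were exposed to five √10-spaced library-drug doses for 5 days and counted from 4× Hoechst images in MetaXpress.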
# [2] = compound: CCN1CCC(CC1)N2C=C(N=N2)CNC3=CC4=C(C(=CN=C4C(=C3)Cl)C#N)NC5=CC(=C(C=C5)F)Cl [KIN001-266] + CC(C)C[C@H](NC(=O)[C@H](Cc1ccccc1)NC(=O)c1cnccn1)B(O)O [Bortezomib] (partner 0.002 µM)
# Procedure, shortened: (§1)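 Lung cancer cell lines in 1536-well plates got either a single drug or a fixed anchor-drug dose together with five library-drug doses (not always all listed) in √10 steps, by pin tool, on the day after seeding. Nuclei were counted after 5 days, and relative viability is the treated-to-vehicle ratio of nuclei counts. Values are medians of duplicate plates.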
# [3] = compound: CCN1CCC(CC1)N2C=C(N=N2)CNC3=CC4=C(C(=CN=C4C(=C3)Cl)C#N)NC5=CC(=C(C=C5)F)Cl [KIN001-266] + CC1(C)CCC(c2ccc(Cl)cc2)=C(CN2CCN(c3ccc(C(=O)NS(=O)(=O)c4ccc(N[C@H](CCN5CCOCC5)CSc5ccccc5)c(S(=O)(=O)C(F)(F)F)c4)cc3)CC2)C1 [Navitoclax] (partner 0.5 µM)
# Procedure, shortened: as §1
# [4] = compound: CCN1CCC(CC1)N2C=C(N=N2)CNC3=CC4=C(C(=CN=C4C(=C3)Cl)C#N)NC5=CC(=C(C=C5)F)Cl [KIN001-266] + COc1cc2c(Oc3ccc(NC(=O)C4(C(=O)Nc5ccc(F)cc5)CC4)cc3F)ccnc2cc1OCCCN1CCOCC1 [Foretinib] (partner 0.25 µM)
# Procedure, shortened: as §1
# [5] = compound: CCN1CCC(CC1)N2C=C(N=N2)CNC3=CC4=C(C(=CN=C4C(=C3)Cl)C#N)NC5=CC(=C(C=C5)F)Cl [KIN001-266] + CS(=O)(=O)CCNCc1ccc(-c2ccc3ncnc(Nc4ccc(OCc5cccc(F)c5)c(Cl)c4)c3c2)o1 [Lapatinib] (partner 2 µM)
# Procedure, shortened: as §1
# [6] = compound: CCN1CCC(CC1)N2C=C(N=N2)CNC3=CC4=C(C(=CN=C4C(=C3)Cl)C#N)NC5=CC(=C(C=C5)F)Cl [KIN001-266] + CS(=O)(=O)N1CCN(Cc2cc3nc(-c4cccc5[nH]ncc45)nc(N4CCOCC4)c3s2)CC1 [Pictilisib] (partner 1 µM)
# Procedure, shortened: as §1
# [7] = compound: CCN1CCC(CC1)N2C=C(N=N2)CNC3=CC4=C(C(=CN=C4C(=C3)Cl)C#N)NC5=CC(=C(C=C5)F)Cl [KIN001-266] + C[C@@H](Oc1cc(-c2cnn(C3CCNCC3)c2)cnc1N)c1c(Cl)ccc(F)c1Cl [Crizotinib] (partner 1 µM)
# Procedure, shortened: as §1
# [8] = compound: CCN1CCC(CC1)N2C=C(N=N2)CNC3=CC4=C(C(=CN=C4C(=C3)Cl)C#N)NC5=CC(=C(C=C5)F)Cl [KIN001-266] + C[C@]1(O)C[C@@H](c2nc(-c3ccc4ccc(-c5ccccc5)nc4c3)c3c(N)nccn32)C1 [Linsitinib] (partner 1 µM)
# Procedure, shortened: as §1
# [9] = compound: CCN1CCC(CC1)N2C=C(N=N2)CNC3=CC4=C(C(=CN=C4C(=C3)Cl)C#N)NC5=CC(=C(C=C5)F)Cl [KIN001-266] + Cc1nc(NC(=O)N2CCC[C@H]2C(N)=O)sc1-c1ccnc(C(C)(C)C(F)(F)F)c1 [Alpelisib] (partner 2 µM)
# Procedure, shortened: as §1
# [10] = compound: CCN1CCC(CC1)N2C=C(N=N2)CNC3=CC4=C(C(=CN=C4C(=C3)Cl)C#N)NC5=CC(=C(C=C5)F)Cl [KIN001-266] + O=C(c1cc(Cc2n[nH]c(=O)c3ccccc23)ccc1F)N1CCN(C(=O)C2CC2)CC1 [Olaparib] (partner 8 µM)
# Procedure, shortened: as §1
# [11] = compound: CCN1CCC(CC1)N2C=C(N=N2)CNC3=CC4=C(C(=CN=C4C(=C3)Cl)C#N)NC5=CC(=C(C=C5)F)Cl [KIN001-266] + CCNC(=O)c1noc(-c2cc(C(C)C)c(O)cc2O)c1-c1ccc(CN2CCOCC2)cc1 [Luminespib] (partner 0.01 µM)
# Procedure, shortened: as §1
# [12] = compound: CCN1CCC(CC1)N2C=C(N=N2)CNC3=CC4=C(C(=CN=C4C(=C3)Cl)C#N)NC5=CC(=C(C=C5)F)Cl [KIN001-266] + COc1cccc2cc(-c3nc([C@H]4CC[C@H](C(=O)O)CC4)n4ncnc(N)c34)[nH]c12 [OSI-027] (partner 0.5 µM)
# Procedure, shortened: as §1
# [13] = compound: CCN1CCC(CC1)N2C=C(N=N2)CNC3=CC4=C(C(=CN=C4C(=C3)Cl)C#N)NC5=CC(=C(C=C5)F)Cl [KIN001-266] + Cc1cc(Nc2cc(N3CCN(C)CC3)nc(Sc3ccc(NC(=O)C4CC4)cc3)n2)n[nH]1 [Tozasertib] (partner 0.1 µM)
# Procedure, shortened: as §1
# [14] = compound: CCN1CCC(CC1)N2C=C(N=N2)CNC3=CC4=C(C(=CN=C4C(=C3)Cl)C#N)NC5=CC(=C(C=C5)F)Cl [KIN001-266] + Cc1nc(Nc2ncc(C(=O)Nc3c(C)cccc3Cl)s2)cc(N2CCN(CCO)CC2)n1 [Dasatinib] (partner 0.075 µM)
# Procedure, shortened: as §1
# [15] = compound: CCN1CCC(CC1)N2C=C(N=N2)CNC3=CC4=C(C(=CN=C4C(=C3)Cl)C#N)NC5=CC(=C(C=C5)F)Cl [KIN001-266] + N=C(N)NC(=N)NCCc1ccccc1 [Phenformin] (partner 250 µM)
# Procedure, shortened: as §1
cell line,measurement,setting,value
Calu-6,relative viability,[1]; 0.08 µM,0.995
same,relative viability,[1]; 0.253 µM,1.04
same,relative viability,[1]; 0.8 µM,1.02
same,relative viability,[1]; 2.53 µM,0.969
same,relative viability,[1]; 8 µM,0.798
same,relative viability,[2]; first compound 0.08 µM,1.11
same,relative viability,[2]; first compound 0.253 µM,1.11
same,relative viability,[2]; first compound 0.8 µM,1.05
same,relative viability,[2]; first compound 2.53 µM,0.948
same,relative viability,[2]; first compound 8 µM,0.682
same,relative viability,[3]; first compound 0.08 µM,0.868
same,relative viability,[3]; first compound 0.253 µM,0.877
same,relative viability,[3]; first compound 0.8 µM,0.859
same,relative viability,[3]; first compound 2.53 µM,0.64
same,relative viability,[3]; first compound 8 µM,0.437
same,relative viability,[4]; first compound 0.08 µM,0.921
same,relative viability,[4]; first compound 0.253 µM,0.861
same,relative viability,[4]; first compound 0.8 µM,0.925
same,relative viability,[4]; first compound 2.53 µM,0.917
same,relative viability,[4]; first compound 8 µM,0.609
same,relative viability,[5]; first compound 0.08 µM,1.09
same,relative viability,[5]; first compound 0.253 µM,1.05
same,relative viability,[5]; first compound 0.8 µM,1.02
same,relative viability,[5]; first compound 2.53 µM,1
same,relative viability,[5]; first compound 8 µM,0.899
same,relative viability,[6]; first compound 0.08 µM,0.933
same,relative viability,[6]; first compound 0.253 µM,0.9
same,relative viability,[6]; first compound 0.8 µM,1.08
same,relative viability,[6]; first compound 2.53 µM,0.805
same,relative viability,[6]; first compound 8 µM,0.765
same,relative viability,[7]; first compound 0.08 µM,0.768
same,relative viability,[7]; first compound 0.253 µM,0.763
same,relative viability,[7]; first compound 0.8 µM,0.825
same,relative viability,[7]; first compound 2.53 µM,0.81
same,relative viability,[7]; first compound 8 µM,0.595
same,relative viability,[8]; first compound 0.08 µM,1.03
same,relative viability,[8]; first compound 0.253 µM,0.978
same,relative viability,[8]; first compound 0.8 µM,0.955
same,relative viability,[8]; first compound 2.53 µM,0.943
same,relative viability,[8]; first compound 8 µM,0.836
same,relative viability,[9]; first compound 0.08 µM,1.16
same,relative viability,[9]; first compound 0.253 µM,0.915
same,relative viability,[9]; first compound 0.8 µM,1.1
same,relative viability,[9]; first compound 2.53 µM,0.915
same,relative viability,[9]; first compound 8 µM,0.86
same,relative viability,[10]; first compound 0.08 µM,0.649
same,relative viability,[10]; first compound 0.253 µM,0.653
same,relative viability,[10]; first compound 0.8 µM,0.587
same,relative viability,[10]; first compound 2.53 µM,0.542
same,relative viability,[10]; first compound 8 µM,0.365
NCI-H1623,relative viability,[1]; 0.08 µM,0.963
same,relative viability,[1]; 0.253 µM,0.96
same,relative viability,[1]; 0.8 µM,0.955
same,relative viability,[1]; 2.53 µM,1.07
same,relative viability,[1]; 8 µM,1.01
same,relative viability,[11]; first compound 0.08 µM,0.423
same,relative viability,[11]; first compound 0.253 µM,0.624
same,relative viability,[11]; first compound 0.8 µM,0.57
same,relative viability,[11]; first compound 2.53 µM,0.475
same,relative viability,[11]; first compound 8 µM,0.536
same,relative viability,[4]; first compound 0.08 µM,1.05
same,relative viability,[4]; first compound 0.253 µM,0.865
same,relative viability,[4]; first compound 0.8 µM,0.871
same,relative viability,[4]; first compound 2.53 µM,0.894
same,relative viability,[4]; first compound 8 µM,0.875
same,relative viability,[12]; first compound 0.08 µM,0.457
same,relative viability,[12]; first compound 0.253 µM,0.437
same,relative viability,[12]; first compound 0.8 µM,0.385
same,relative viability,[12]; first compound 2.53 µM,0.453
same,relative viability,[12]; first compound 8 µM,0.433
same,relative viability,[13]; first compound 0.08 µM,0.468
same,relative viability,[13]; first compound 0.253 µM,0.421
same,relative viability,[13]; first compound 0.8 µM,0.461
same,relative viability,[13]; first compound 2.53 µM,0.432
same,relative viability,[13]; first compound 8 µM,0.422
same,relative viability,[14]; first compound 0.08 µM,0.579
same,relative viability,[14]; first compound 0.253 µM,0.514
same,relative viability,[14]; first compound 0.8 µM,0.447
same,relative viability,[14]; first compound 2.53 µM,0.547
same,relative viability,[14]; first compound 8 µM,0.475
same,relative viability,[15]; first compound 0.08 µM,0.652
same,relative viability,[15]; first compound 0.253 µM,0.603
same,relative viability,[15]; first compound 0.8 µM,0.577
same,relative viability,[15]; first compound 2.53 µM,0.611
same,relative viability,[15]; first compound 8 µM,0.526
